Patent US10844054B2, “Compounds for pain treatment, compositions comprising same, and methods of using same” (CERSCI THERAPEUTICS, INC., priority 2018, dated 2020)
Read-outs that look alike come from different tables or passages of the source.

How the values were obtained:
[1] = Inhibition of SIN1-mediated peroxynitrite oxidation of luminol (L-012 assay); type: biochemical; conditions: for Peroxynitrite gen (% control, 10 μM): compound at 10 μM, SIN-1 100 μM, L-012, PBS pH 8.5
Protocol: Luminol-like compounds such as L-012 are chemilumescent probes that are oxidized by the presence of ROS and RNS such as peroxynitrite. In this assay L-012 is oxidized by the addition of 3-morpholino-sydnonimine (SIN-1), a known peroxynitrite generator. The emitted luminescence is directly proportional to the concentration of SIN-1. The compounds were assessed for their ability to neutralize/scavenge/decompose peroxynitrite by blocking the increase of peroxynitrite induced chemilumescence. Concentrations of compound producing 50% inhibition of the luminescence signal (IC50 values) were calculated by testing the compounds at various concentrations of two parallel measurements.
Stock solution (10 mM) of compounds were prepared in 100% DMSO.
The following solutions were added to white polystyrene, non-sterile 96-well plate (Thermo Scientifi NUNC™ 96 MICROWELL™ White Polystyrene Plates #447796): • 10 μL SIN-1 2 mM in 100% DMSO solution (SIN-1 final concentration 100 DMSO final volume—5%); • 190 μL L012+/−test compound in phosphate-buffered solution (PBS, pH=8.5) (L012 final concentration 100 μM).
Luminescence signal was recorded by Hidex Sense multimodal microplate reader (Hidex) at 30° C. for 30 min, with a measurement every 60 sec and an integration time of 1 sec.
IC50 values were calculated using two different methods; first by measuring the slopes of the steepest linear portion of the kinetic profile during the first 5 min (as % from control) and secondly, by measuring the maximal luminiscence at 30 min time point (as % from control). IC50 values of the tested compounds were calculated using GraphPad Prism 5.0 software package.

[2] = tested on: nerve injury induced tactile allodynia; test: Rat spinal nerve ligation (SNL) model, tactile allodynia (von Frey); type: in vivo; conditions: 100 mg/kg i.p.
Protocol: The spinal nerve ligation (SNL) model of neuropathic pain in the rat results in behaviors similar to that observed in patients (Kim & Chung, 1992, Pain 50(3):355-63) and has been widely used to assess novel pharmacological treatments (Sindrup & Jensen, 1999, Pain 83(3):389-400). Compounds of the invention were evaluated for its ability to reverse or prevent development of tactile allodynia in a rat model of neuropathic pain.
The positive control was gabapentin (Toronto Research Chemicals, Canada). The negative control was vehicle (0.5% methyl cellulose; 2-hydroxy-propyl-beta-cyclodextrin). Male Sprague-Dawley Rats (Harlan, 11) were 250-300 g at time of dosing. […]
The effect of compounds of the invention on nerve injury induced tactile allodynia was investigated using von Frey filaments 1-3 weeks after tight ligation of the LS spinal nerve. Tactile thresholds were assessed using a series of calibrated von Frey monofilaments (Stoelting, Wood Dale, Ill.). Assessment of tactile allodynia was measured as the hind paw-withdrawal threshold that produced a 50% likelihood of a withdrawal using the up-down method. Thresholds were evaluated before surgery, and they were reassessed 1-3 weeks after SNL surgery. […] Tactile thresholds were again assessed either 1 and 3 h, 3 and 5 h or once weekly after administration. […]

[3] = tested on: latency to fall from rotarod; test: Accelerating rotarod assay of ataxia; type: in vivo, rat; conditions: 3 mg/kg p.o., 1 h post-administration
Protocol: Ataxia is a common clinical problem with CNS-active compounds and can often confound interpretation of efficacy in preclinical pain models. The rotarod assay of ataxia has been widely used to assess the side-effect liability of novel pharmacological treatments (Jones & Roberts, 1968, J. Pharm. Pharmacol. 20:302-04).
The effect of compounds of the invention to impact latency to fall in an accelerating rotarod assay of ataxia in rats was evaluated. The positive control was haloperidol (Sigma, St. Louis), and the negative control was vehicle (which was hydroxypropylmethyl-cellulose and 15% DMA, 65% PEG300, and 20% D5W for haloperidol).
Male Sprague-Dawley Rats (Harlan, Ill.) were 250-300 g at time of dosing. Rotarod was obtained from IITC, CA. To examine the potential effects of compounds of the invention on motor performance, rats were tested on an accelerating rotarod (IITC, Ca). In this assay, rats were placed on the rotarod with the speed set to accelerate from 4 to 40 rpm over 300 sec. The maximum time spent on the rotarod was set at 300 seconds. Rats received two timed training trials (averaged to give the reported baseline) on the first day, then 24 h later rats were administered compound of the invention (30, 100 and 300 mg/kg, p.o.), haloperidol (3 mg/kg, p.o.) or vehicle.

[4] = tested on: carrageenan-induced thermal hyperalgesia and edema; test: Intraplantar carrageenan model of acute inflammatory pain (Hargreaves test, paw volume); type: in vivo, rat; conditions: 30 mg/kg p.o., dosed preemptively, assessed 4 h post-carrageenan
Protocol: The intraplantar carrageenan model of acute inflammatory pain in the rat results in behaviors similar to that observed in patients and has been widely used to assess novel pharmacological treatments (Whiteside, et al., 2005, J. Pharmacol. Exp. Ther. 314:1234-1240).
For this assay, paw withdrawal latency to a thermal stimulus was assessed using a radiant heat source (Ugo Basile, Italy) aimed at the plantar surface of the left hind paw (Hargreaves test). A cut-off latency of 40 sec is set to avoid tissue damage. Paw volume was measured by displacement of water and assuming a tissue density equal to that of water. Baseline latencies were taken prior to carrageenan administration and re-assessed 4 h later. Compounds of the invention or vehicle were administered (10 and 30 mg/kg, p.o.) 3 h after carrageenan (curative) and behavior assessed 1 h later. Additionally, compounds of the invention were administered 15 minutes prior to carrageenan (preemptive) and behavior assessed 4 h post carrageenan. Indomethacin (positive control, 30 mg/kg p.o.) was administered prior to carrageenan and behavior assessed 4 h post-carrageenan.
Intraplantar injection of carrageenan was performed under 2.5-4.0% isoflurane/O2 anesthesia, delivered via nose cone. After induction of anesthesia, the injection site was prepared in a sterile manner and 50 μL of a 2% λ-carrageenan was injected. […]

[5] = from maximal luminescence at 30 min time point, read-out: IC50 (μM) (% luminol absorb. @ 30 min)
[6] = from slopes of steepest linear portion of kinetic profile during first 5 min, read-out: IC50 (μM) (% PN gen)

SMILES | Peroxynitrite gen (% control, 10 μM) [1] | IC50 [1, 5] | IC50 [1, 6] | reversal of tactile allodynia [2] | motor performance / latency to fall in rotarod [3] | prevention of carrageenan-induced edema (paw volume) [4] | prevention of carrageenan-induced thermal hyperalgesia [4]
CC1(C)SC(Nc2ncccc2O)=N[C@@H]1C(=O)O.Cl [Compound 4a, (R)-2-(3-Hydroxy-pyridin-2-ylamino)-5,5-dimethyl-4,5-dihydro-thiazole-4-carboxylic acid hydrochloride] | 0 % control | 1.8 µM | 0.26 µM | – | – | – | –
CC1(C)SC(Nc2ncccc2O)=N[C@H]1C(=O)O.Cl [Compound 5a, (S)-2-(3-Hydroxy-pyridin-2-ylamino)-5,5-dimethyl-4,5-dihydro-thiazole-4-carboxylic acid hydrochloride] | 0 % control | 1.6 µM | 0.17 µM | – | – | – | –
Cl.O=C(O)[C@@H]1CSC(Nc2ncccc2O)=N1 [Compound 7a, (R)-2-((3-hydroxypyridin-2-yl)amino)-4,5-dihydrothiazole-4-carboxylic acid hydrochloride] | 0 % control | 1.8 µM | 0.17 µM | – | – | – | –
Cl.O=C(O)[C@H]1CSC(Nc2ncccc2O)=N1 [Compound 8a, (S)-2-((3-hydroxypyridin-2-yl)amino)-4,5-dihydrothiazole-4-carboxylic acid hydrochloride] | 0 % control | 2.1 µM | 0.23 µM | – | – | – | –
CC1(C)SC(Nc2cnccc2O)=N[C@@H]1C(=O)O.Cl [Compound 12a, (R)-2-((4-Hydroxypyridin-3-yl)amino)-5,5-dimethyl-4,5-dihydrothiazole-4-carboxylic acid hydrochloride] | 82 % control | > 10 µM | > 10 µM | – | – | – | –
CC1(C)SC(Nc2ccncc2O)=N[C@@H]1C(=O)O.Cl [Compound 17a, (R)-2-((3-Hydroxypyridin-4-yl)amino)-5,5-dimethyl-4,5-dihydrothiazole-4-carboxylic acid hydrochloride] | 75 % control | > 10 µM | > 10 µM | – | – | – | –
CC1(C)SC(Nc2ccncc2O)=N[C@H]1C(=O)O.Cl [Compound 18a, (S)-2-((3-Hydroxypyridin-4-yl)amino)-5,5-dimethyl-4,5-dihydrothiazole-4-carboxylic acid hydrochloride] | 77 % control | > 10 µM | > 10 µM | – | – | – | –
CC1(C)SC(Nc2cccnc2O)=N[C@@H]1C(=O)O.Cl [Compound 22a, (R)-2-((2-Hydroxypyridin-3-yl)amino)-5,5-dimethyl-4,5-dihydrothiazole-4-carboxylic acid hydrochloride] | 96 % control | > 10 µM | > 10 µM | – | – | – | –
CC1(C)SC(Nc2cccnc2O)=N[C@H]1C(=O)O.Cl [Compound 23a, (S)-2-((2-Hydroxypyridin-3-yl)amino)-5,5-dimethyl-4,5-dihydrothiazole-4-carboxylic acid hydrochloride] | 67 % control | > 10 µM | > 10 µM | – | – | – | –
Cl.O=C(O)[C@@H]1CSC(Nc2cnccc2O)=N1 [Compound 25a, (R)-2-((4-Hydroxypyridin-3-yl)amino)-4,5-dihydrothiazole-4-carboxylic acid hydrochloride] | 111 % control | > 10 µM | > 10 µM | – | – | – | –
Cl.O=C(O)[C@@H]1CSC(Nc2ccncc2O)=N1 [Compound 27a, (R)-2-(3-Hydroxy-pyridin-4-ylamino)-4,5-dihydro-thiazole-4-carboxylic acid hydrochloride] | 61 % control | > 10 µM | > 10 µM | – | – | – | –
NCC1(CC(=O)O)CCCCC1 [gabapentin] | – | – | – | statistically significant reversal of allodynia | – | – | –
O=C(CCCN1CCC(O)(c2ccc(Cl)cc2)CC1)c1ccc(F)cc1 [haloperidol] | – | – | – | – | significant motor deficits | – | –
COc1ccc2c(c1)c(CC(=O)O)c(C)n2C(=O)c1ccc(Cl)cc1 [indomethacin] | – | – | – | – | – | statistically significant prevention | statistically significant prevention
